# Test results from patent US9511120B2, “Use of the angiotensin-(1-9) peptide or derivatives thereof, use of vectors overexpressing the ACE2 enzyme that produces angiotensin-(1-9) for preparing medicaments useful for preventing, reverting, inhibiting and/or reducing hypertension and/or inducing vasodilation” (PONTIFICA UNIVERSIDAD CATÓLICA DE CHILE, priority 2012, dated 2016).
# How the values were obtained:
# [1] = test system: rat mesenteric arteries; assay: Contractility studies in perfused, pressurized mesenteric arteries; settings: co-incubated with angiotensin-(1-9)
# Description: The change in diameter of rat resistance (mesenteric) arteries was determined, they were then perfused and pressurized under physiological conditions, in response to different substances, according to a methodology previously described (Gonzalez et al. Hypertension 45:853-9, 2005). Briefly, male rats (Sprague Dawley, 150-200 g) were euthanized for dissection of mesenteric vascular territory, avoiding direct manipulation of arterial or venous tissue. Mesenteric small arteries (200-300 micrometers) were isolated, surgically eliminating adventitial tissue under a zoom stereo microscope (Olympus SZ61). The arteries were perfused intraluminally into a thermoregulated bath at controlled pressure and flow, with perfusion solution (modified Krebs, KRB) of the following composition, in mmol/L: NaCl, 130; CaCl2, 2.5; NaHCO3, 25; MgSO4, 1.2; NaH2PO4, 1.2; KCl, 4.7; glucose, 5.5, pH 7.4. Before use, KRB was gassed with a mixture of 95% O2 and 5% CO2. For perfusion, the artery was cannulated with a glass micropipette (outer diameter 164μ), secured with 5-0 silk suture. The arteries were perfused with 10-20 μL/min KRB, so as to achieve transmural pressure of 60 mmHg. After a rest period of 20 minutes, each artery was incubated in the presence of a vasoconstrictor (100 μM phenylephrine) for two minutes and an endothelial NO production agonist (1 μM acetylcholine). […]
# [2] = test system: angiotensin-(1-9); settings: administration of the drug; cited from earlier work
# [3] = test system: collagen I; assay: Angiotensin II infusion model: collagen I protein levels in the aortic wall by Western blot; type: in vivo, rat; settings: aortic wall
# Description: (§1) Rats were subjected to the model of angiotensin II infusion (Grobe et al.: Am. J. Physiol. 292: H736-42, 2007). The animals were separated randomly into the following experimental groups: controls (Sham or pseudo-operated), infused with angiotensin II (300 ng/kg min), infused with angiotensin II and angiotensin-(1-9) (300 ng/kg min and 602 ng/kg min, respectively), and then infused with angiotensin II, angiotensin-(1-9) and the angiotensin-(1-7) receptor antagonist, A779 (300 ng/kg min, 602 ng/kg min, and 100 ng/kg min, respectively). In all cases the pumps operated at a flow of 0.5 μL/h and were implanted in the right jugular vein through a catheter fitted in an intrascapular subcutaneous pocket under anesthesia with ketamine HCl/xylazine (35 and 7 mg/kg i.p., respectively), for a period of 14 days.
# For the determination of collagen I and TGFβ-1, 30 μg and 50 μg of total proteins were used, respectively, diluted in SDS reducing buffer (50 mM tris-HCl, pH 7.4, NP-40 10%, NaCl 1M, Na deoxycholate 5%, EDTA 10 mg/mL, SDS 10%, aprotinin 1 mg/mL, leupeptin 0.1 mg/mL, PMSF 10 mM), they were then separated by SDS-PAGE gel electrophoresis 7%, and transferred to nitrocellulose membranes of […] to 300 mA for 1 h. The transfer of proteins was monitored by Ponceau red staining. […]
# [4] = test system: cardiomyocyte hypertrophy induced by Ang II in vivo; assay: Angiotensin II infusion model: cardiomyocyte hypertrophy (area and perimeter); set-up: species or system rat; settings: two weeks
# Description: as §1
# The middle portion of the left ventricle (LV) was dehydrated at room temperature for 24 h in Bouin and then embedded in paraffin. Sections of 10-15 μm thick were taken and stained with hematoxylin-eosin, to be examined later in a light microscope in order to observe their general morphological characteristics. Cardiomyocyte size was determined according to Nakamura et al. (Circulation, 98:794-9, 1998). Briefly, images of the cells were captured using a Nikon DS Fi1 camera and projected on a monitor using a software program. The cardiomyocyte area and perimeter were measured and recorded, using the Nis-Element program (Ocaranza et al. J. Hypertens., 28:1054-64, 2010). All measurements were performed by a blinded observer, and at least 80 images of cells per animal, which were randomly selected, were analyzed.
# [5] = test system: TGF-β mRNA; assay: Angiotensin II infusion model: TGF-β mRNA levels in the aortic wall; type: in vivo, rat; settings: normalized to 18S rRNA
# Description: as §1
# (§2) The procedure described by Ocaranza et al. (Hypertension 48:572-8, 2006) was followed. Briefly, total RNA was isolated from the aorta using the trizol method and quantified by spectroscopy at 260 nm/280 nm. The cDNA was obtained by reverse transcription from 1.5 μg of total RNA treated with DNAse. […] The band intensity was quantified by densitometry and normalized to the 18S ribosomal RNA band.
# [6] = test system: hypertensive rats by administration of angiotensin II; assay: Hypertension induced by angiotensin II infusion: body mass, cardiac mass, systolic blood pressure; type: in vivo, rat
# Description: as §1
# Systolic blood pressure (SBP) was measured by the tail plethysmographic method in the animals. To such end, rats were lightly anesthetized with ethyl ether. The measurement was performed once a week by researchers blind to the treatment (Ocaranza et al. J. Hypertens. 20:413-20, 2002).
# The degree of cardiac hypertrophy (CH) was measured by the ratio of the cardiac mass (CM), the body mass (BM) and relative cardiac mass (RCM; [CM/BM]*100) (Ocaranza et al., J. Hypertens. 28:1054-1064, 2010).
# Four experimental groups of rats were established as described in Example 1. Group 1 corresponds to rats which were infused with saline (Sham). Group 2 corresponds to rats which were infused with only angiotensin II. Group 3 correspond to rats which were co-infused with angiotensin II and angiotensin-(1-9). And Group 4 corresponds to rats which were co-infused with angiotensin II, angiotensin-(1-9) and A779.
# [7] = test system: MCP-1 mRNA; assay: Angiotensin II infusion model: MCP-1 mRNA levels in the aortic wall; type: in vivo, rat
# Description: as §1, §2
# [8] = test system: thoracic aortas of hypertensive rats by angiotensin II infusion; assay: Angiotensin II infusion model: aortic hypertrophy by morphometry; type: in vivo, rat; settings: thoracic aorta, 14 days infusion
# Description: as §1
# Aortic hypertrophy was determined by morphometry. Sections of the descending aorta of 5 μm thick, which were previously fixed in Bouin (1.3% picric acid, 9.5% formaldehyde and 4.8% acetic acid) for 24 hours, embedded in paraffin and stained with hematoxylin-eosin, were used, to be examined later in a light microscope as described by Igase et al. (Am. J. Physiol. 289:H1013-9, 2005). Briefly, images of the aortas were captured by a video camera (Nikon) fixed to a microscope (Nikon), and projected on a monitor; using the software Nis-Element. Lumen areas (LA) and total areas (TA) were calculated and recorded. The tunica media area (TMA) was obtained from the difference between the TA and LA of the aorta. The tunica media thickness (TMT) was defined as the region delimited by the external elastic lamina (EEL) and internal elastic lamina (IEL).
molecule,measurement,setting,value
"COC(=O)[C@@H](N)CCCNC(=N)N[N+](=O)[O-] [L-NAME, reference compound]",effect of nitric oxide synthase inhibitor on the vasodilator effect of angiotensin-(1-9),[1],decreased the vasodilator effect
CCOC(=O)[C@H](CCc1ccccc1)N[C@@H](C)C(=O)N1CCC[C@H]1C(=O)O [enalapril],plasma and/or tissue levels of angiotensin-(1-9),[2],increase
"Asp-Arg-Val-Tyr-Ile-His-Pro-Phe [angiotensin II, infused to induce hypertension in the model, reference compound]",increase of collagen I as compared to the Sham control group,[3],4.5 times
same,cardiomyocyte cell area,[4]; left ventricle,282±2 μm^2
same,cardiomyocyte perimeter,[4]; left ventricle,66.2±0.3 μm
same,increase in cell area as compared to the Sham control group,[4],37%
same,increase in perimeter as compared to the Sham control group,[4],18%
same,increase of TGF-β mRNA in relation to Sham control,[5],12.8 times
same,SBP 1st week,[6]; 1st week of infusion,130 ± 4 mmHg
same,SBP 2nd week,[6]; 2nd week of infusion,154 ± 10 mmHg
same,Initial SBP,"[6]; baseline, tail plethysmography",121 ± 9 mmHg
same,CM,"[6]; rats, infusion for 14 days",899 ± 28 mg
same,RCM (MV/MC),"[6]; rats, infusion for 14 days",348 ± 18
same,MCP-1 mRNA levels,[7],no differences
same,ratio of tunica media area (TMA) to LA,[8],increase
same,thickness of the tunica media (TMT),[8],increased significantly
same,vascular lumen area (LA),[8],no change
